From US20250114312A1, “TREATMENT OF COPPER DISORDERS” (PhilERA New Zealand Ltd., priority 2021, published 2025)

What was measured:
[1] = in-life phase, albino and pigmented rats, 10 mg/kg oral
Caco-2 barrier model = test: Permeability in Caco-2 barrier model; conditions: for Papp, B-A direction: compound alone
Procedure: (§1) Digoxin was used as marker to check for Pgp activity in the cultures. […] Samples were recovered from receptor compartments after 0, 15, 30, 45, 60, and 120 minutes, and further analyzed by liquid scintillation counting. Samples were also recovered a time 0 and 120 minutes from the donor compartments for mass balance evaluation. Each condition was performed in 3 replicated transwell filters in the presence of the Caco-2 barrier.

[2] = human, in vivo
urinary copper excretion = conditions: in vivo
Pgp = Pgp (Homo sapiens, UniProt P08183); conditions: Caco-2
[3] = Permeability in Caco-2 barrier model; conditions: human, Caco-2, pH 7.4
Procedure: as §1

Sequence of Pgp (P08183 whole entry): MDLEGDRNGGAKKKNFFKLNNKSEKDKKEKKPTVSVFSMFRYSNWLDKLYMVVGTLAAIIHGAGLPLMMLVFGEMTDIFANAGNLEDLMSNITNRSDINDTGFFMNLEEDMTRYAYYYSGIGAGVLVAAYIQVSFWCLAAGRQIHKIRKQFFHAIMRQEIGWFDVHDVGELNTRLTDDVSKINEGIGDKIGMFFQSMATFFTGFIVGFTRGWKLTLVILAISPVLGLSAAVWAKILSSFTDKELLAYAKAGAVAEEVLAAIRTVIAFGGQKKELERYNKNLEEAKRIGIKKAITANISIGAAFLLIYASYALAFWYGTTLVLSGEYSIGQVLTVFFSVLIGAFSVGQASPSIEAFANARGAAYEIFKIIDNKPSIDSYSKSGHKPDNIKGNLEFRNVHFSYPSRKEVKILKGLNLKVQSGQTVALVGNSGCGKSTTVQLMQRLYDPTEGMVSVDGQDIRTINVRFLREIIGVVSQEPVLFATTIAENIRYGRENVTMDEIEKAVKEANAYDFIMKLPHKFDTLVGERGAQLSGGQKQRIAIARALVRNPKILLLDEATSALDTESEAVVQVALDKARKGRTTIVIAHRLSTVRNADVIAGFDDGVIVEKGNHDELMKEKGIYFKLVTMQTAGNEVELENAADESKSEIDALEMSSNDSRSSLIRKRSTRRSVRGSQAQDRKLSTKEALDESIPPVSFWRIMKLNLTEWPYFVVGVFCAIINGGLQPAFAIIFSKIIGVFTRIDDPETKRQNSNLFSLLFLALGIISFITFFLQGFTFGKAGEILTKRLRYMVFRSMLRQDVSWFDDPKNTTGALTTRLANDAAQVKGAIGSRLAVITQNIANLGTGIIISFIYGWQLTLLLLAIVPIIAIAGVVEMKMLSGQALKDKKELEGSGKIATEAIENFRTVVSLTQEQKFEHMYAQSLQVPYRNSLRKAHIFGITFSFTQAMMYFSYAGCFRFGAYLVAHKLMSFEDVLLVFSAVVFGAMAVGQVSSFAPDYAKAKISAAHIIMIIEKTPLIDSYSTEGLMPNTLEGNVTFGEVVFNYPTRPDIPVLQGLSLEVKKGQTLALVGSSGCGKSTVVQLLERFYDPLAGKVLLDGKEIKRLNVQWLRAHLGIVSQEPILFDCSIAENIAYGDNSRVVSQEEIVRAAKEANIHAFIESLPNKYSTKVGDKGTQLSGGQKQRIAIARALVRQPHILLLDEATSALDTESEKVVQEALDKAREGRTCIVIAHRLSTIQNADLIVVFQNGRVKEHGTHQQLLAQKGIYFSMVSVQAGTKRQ

## NCCNCCNCCN.O=C(O)CCC(=O)O.O=C(O)CCC(=O)O
[1]
  Animal observations attributable to administration: No animal observations

## NCCNCCNCCN.O=C(O)CCC(=O)O.O=C(O)CCC(=O)O [PX811019, triethylenetetramine disuccinate]
human, in vivo, po
  DAT t½ Predicted: 0.390 h
Caco-2 barrier model; disuccinate
  Papp, B-A direction: No permeability was observed
Caco-2 barrier model; estimated from in vitro Papp value
  Predicted absorption in humans: approximately 70%
[2]; po
  MAT t½: 15.8239 h
Urinary copper excretion
  Difference in urinary excretion of copper due to formulation: no clear difference
Urinary copper excretion; po
  Level of cupriuresis versus dose: approximately the same at 435 and 1305 mg PX811019 and increased at the highest dose of 2175 mg
Pgp
  Pgp substrate: would not be a Pgp substrate

## Lucifer yellow
Caco-2 barrier model; Caco-2
  Papp of barrier quality markers: lower than 1×10^−6 cm/s

## C[C@H]1O[C@@H](O[C@H]2[C@@H](O)C[C@H](O[C@H]3[C@@H](O)C[C@H](O[C@H]4CC[C@@]5(C)[C@H](CC[C@@H]6[C@@H]5C[C@@H](O)[C@]5(C)[C@@H](C7=CC(=O)OC7)CC[C@]65O)C4)O[C@@H]3C)O[C@@H]2C)C[C@H](O)[C@@H]1O [Digoxin]
Caco-2 barrier model; B-A/A-B
  Asymmetry Index: 8.06
Caco-2 barrier model
  Papp, B-A direction: 6.08 ×10⁻⁶ cm/s
[3]
  Papp A→B at 1 h, 0.02 mM: 0.75 ×10⁻⁶ cm/s

## CC(=O)NCCNCCNCCNC(C)=O [DAT, N1,N10-diacetyltriethylenetetramine]
human, in vivo
  θ-VP,D/F/frM/frD Apparent volume for DAT: 197 L
[2]
  Median Tmax of DAT: 5.0 to 6.0 h

## NCCNCCNCCN [TETA, Triethylenetetramine, reference compound]
human, in vivo
  Increase of VT,T/F for every 100 mg difference from the 750 mg dose: 6.37%
  Inter-occasion variability of F: 43.7 (17.3) [5.5] %
  Inter-occasion variability of ka: 69.4 (57.6) [16.3] %
In vivo
  Slope (SL) of copper excretion versus TETA concentration: 41.8 (mg/L)^−1
Population mean
  θ-SL · ER0 Slope between TETA and Cu excretion rate: 24.3 (mg/L)^−1 · (μg/h)

## CC(=O)NCCNCCNCCN [MAT, N1-acetyltriethylenetetramine]
human, in vivo
  θ-MTT Mean transit time for MAT formation: 0.381 h
  θ-VP,M/F/frM Apparent volume for MAT: 426 L
